Assay results as given in the supplement of paper PMC10307832.

Assays:
Assay in all cases: relative viability (nuclei count vs DMSO), 5 days (fraction); higher = more cells survive
Ricolinostat = compound: O=C(CCCCCCNC(=O)c1cnc(N(c2ccccc2)c2ccccc2)nc1)NO [Ricolinostat]
Outline: (§1)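 Acceptance criteria were a control CV below 25% and at least one doubling per plate. Lung cancer cell lines in 1536-well plates got five library-drug doses (not always all listed) √10 apart by pinning and were left 5 days with no medium change. Viability divides treated-well nuclei by vehicle-well nuclei and is the median across plates. Nuclei were counted by MetaXpress from 4× Hoechst images.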

[1] = compound: C1=CC=C(C(=C1)C2=CC=C(C=C2)C3=CSC4=C3C(=C(C(=O)N4)C#N)O)O
Outline: as §1

TGX 221 = compound: CC1=CN2C(=O)C=C(N=C2C(=C1)C(C)NC3=CC=CC=C3)N4CCOCC4 [TGX 221]
Outline: as §1

TGX 221 + Dasatinib = compound: CC1=CN2C(=O)C=C(N=C2C(=C1)C(C)NC3=CC=CC=C3)N4CCOCC4 [TGX 221] + Cc1nc(Nc2ncc(C(=O)Nc3c(C)cccc3Cl)s2)cc(N2CCN(CCO)CC2)n1 [Dasatinib] (partner 0.075 µM)
Outline: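 Relative viability is defined as nuclei in treated wells over nuclei in vehicle wells. Duplicate plates were run and medians reported. Lung cancer cell lines in 1536-well plates were dosed by pin tool one day after seeding, with one drug or with a fixed anchor-drug dose plus five library-drug doses (not always all listed) in √10 steps, and nuclei were counted after 5 days.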

**Q.** With NCI-H1792 as the cell line, how does the relative viability (Ricolinostat; 0.08 µM) read?
**A.** The relative viability was 0.599.

**Q.** And the relative viability (Ricolinostat; 0.253 µM)?
**A.** Its relative viability is 0.938.

**Q.** And the relative viability (Ricolinostat; 0.8 µM)?
**A.** The relative viability was 0.754.

**Q.** And the relative viability (Ricolinostat; 2.53 µM)?
**A.** The relative viability was 0.57.

**Q.** What about the relative viability ([1]; 0.253 µM) of the same cell line?
**A.** Its relative viability is 1.01.

**Q.** What about the relative viability ([1]; 0.8 µM) of the same cell line?
**A.** Its relative viability is 0.723.

**Q.** What about the relative viability ([1]; 2.53 µM) of the same cell line?
**A.** Its relative viability is 0.921.

**Q.** What about the relative viability ([1]; 8 µM) of the same cell line?
**A.** Its relative viability is 0.446.

**Q.** And the relative viability (TGX 221; 0.08 µM)?
**A.** The relative viability was 0.749.

**Q.** And the relative viability (TGX 221; 0.253 µM)?
**A.** The relative viability was 0.878.

**Q.** And the relative viability (TGX 221; 0.8 µM)?
**A.** Its relative viability is 1.

**Q.** And the relative viability (TGX 221; 2.53 µM)?
**A.** The relative viability was 0.883.

**Q.** And the relative viability (TGX 221; 8 µM)?
**A.** Its relative viability is 0.864.

**Q.** And the relative viability (TGX 221 + Dasatinib; first compound 0.08 µM)?
**A.** The relative viability was 0.831.

**Q.** What about the relative viability (TGX 221 + Dasatinib; first compound 0.253 µM) of the same cell line?
**A.** The relative viability was 0.699.

**Q.** What about the relative viability (TGX 221 + Dasatinib; first compound 0.8 µM) of the same cell line?
**A.** The relative viability was 0.785.

**Q.** And the relative viability (TGX 221 + Dasatinib; first compound 2.53 µM)?
**A.** The relative viability was 0.7.

**Q.** And the relative viability (TGX 221 + Dasatinib; first compound 8 µM)?
**A.** Its relative viability is 0.503.
